Data as given in ChEMBL document CHEMBL1201862, “PubChem BioAssay data set” (2004).
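Each compound was tested at five concentrations against cells in 96-well plates for 48 hours. GI50 marks 50% less growth.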 The source made the active and inactive calls. Rule as the data show it: active = GI50 up to about 1.1 µM and inactive = higher.

Columns and labels:
Test in all cases: NCI-60 cell line screen, 48 h
786-0 = test system: 786-0
A498 = test system: A498
CAKI-1 = test system: CAKI-1
NCI-H226 = test system: NCI-H226
NCI-H23 = test system: NCI-H23
OVCAR-4 = test system: OVCAR-4
ACHN = test system: ACHN
HOP-92 = test system: HOP-92
OVCAR-3 = test system: OVCAR-3
MDA-MB-231 = test system: MDA-MB-231
Malme-3M = test system: Malme-3M
SK-MEL-2 = test system: SK-MEL-2
MCF7 = test system: MCF7
SF-539 = test system: SF-539
SNB-75 = test system: SNB-75
MDA-MB-435 = test system: MDA-MB-435
U-251 = test system: U-251
HCC 2998 = test system: HCC 2998
OVCAR-8 = test system: OVCAR-8
MDA-N = test system: MDA-N

Measured: GI50

COC(=O)C(C(=O)C(=O)Nc1c(C)cccc1C(C)(C)C)c1nc2ccc(Cl)cc2nc1O (stereo not given)
inactive: 786-0 > 100 µM | A498 > 100 µM | CAKI-1 > 100 µM | NCI-H226 > 100 µM | NCI-H23 > 100 µM | OVCAR-4 > 100 µM | ACHN > 100 µM | HOP-92 > 100 µM | OVCAR-3 > 100 µM | MDA-MB-231 > 100 µM | Malme-3M > 100 µM | SK-MEL-2 > 100 µM | MCF7 > 100 µM | SF-539 > 100 µM | SNB-75 > 100 µM | MDA-MB-435 > 100 µM | U-251 > 100 µM | HCC 2998 > 100 µM | OVCAR-8 > 100 µM

O=C(CNC(=O)c1ccccc1)Oc1c(Cl)c(Cl)c(Cl)c(Cl)c1Cl
inactive: 786-0 50.5 µM | CAKI-1 25.8 µM | NCI-H226 29 µM | NCI-H23 > 100 µM | OVCAR-4 45.5 µM | ACHN 25.2 µM | OVCAR-3 25.4 µM | MDA-MB-231 22.9 µM | Malme-3M 28.8 µM | SK-MEL-2 21 µM | MCF7 40.2 µM | SF-539 28.2 µM | SNB-75 45.5 µM | MDA-MB-435 36.1 µM | U-251 26.7 µM | HCC 2998 27.7 µM | OVCAR-8 22.1 µM

O=NN1CCCS1(=O)=O
inactive: 786-0 > 100 µM | A498 > 100 µM | CAKI-1 > 100 µM | NCI-H226 > 100 µM | NCI-H23 > 100 µM | OVCAR-4 > 100 µM | ACHN > 100 µM | OVCAR-3 > 100 µM | MDA-MB-231 > 100 µM | Malme-3M > 100 µM | MCF7 > 100 µM | SF-539 > 100 µM | SNB-75 12.6 µM | U-251 > 100 µM | HCC 2998 > 100 µM | OVCAR-8 > 100 µM

CC1=C(C(=O)NCCc2ccccc2)CC(C(=O)NCCc2ccccc2)=C(C)N1
inactive: 786-0 87.5 µM | A498 33.2 µM | CAKI-1 > 100 µM | NCI-H226 > 100 µM | NCI-H23 > 100 µM | OVCAR-4 > 100 µM | ACHN 55.3 µM | HOP-92 49.3 µM | OVCAR-3 88.3 µM | MDA-MB-231 > 100 µM | SK-MEL-2 > 100 µM | MCF7 > 100 µM | SF-539 > 100 µM | SNB-75 14.3 µM | MDA-MB-435 > 100 µM | U-251 > 100 µM | HCC 2998 > 100 µM | OVCAR-8 > 100 µM

C/N=c1\ss/c(=N\C(=S)N(C)C)n1-c1ccccc1
inactive: 786-0 38.3 µM | A498 44.6 µM | CAKI-1 > 100 µM | NCI-H226 > 100 µM | NCI-H23 > 68.1 µM | OVCAR-4 > 100 µM | ACHN > 100 µM | HOP-92 39.5 µM | OVCAR-3 > 100 µM | Malme-3M > 100 µM | SK-MEL-2 > 64 µM | SF-539 31 µM | SNB-75 17.3 µM | U-251 67 µM | HCC 2998 > 100 µM | OVCAR-8 > 100 µM

CC(C)Cc1ccc(C(C)C(=O)N2CCN(/C=C/c3ccccc3)CC2)cc1 (stereo not given)
inactive: A498 16.4 µM | NCI-H226 12.6 µM | NCI-H23 13.2 µM | OVCAR-4 11.9 µM | HOP-92 13.1 µM | OVCAR-3 12.9 µM | Malme-3M 16.3 µM | SK-MEL-2 13.6 µM | MCF7 16 µM | SF-539 15.2 µM | SNB-75 14 µM | U-251 12.9 µM | HCC 2998 17.9 µM | OVCAR-8 14.5 µM

Nc1ccc(S(=O)(=O)C23CC4CC(CC(C4)C2)C3)cc1
inactive: 786-0 > 100 µM | A498 23.1 µM | CAKI-1 > 100 µM | NCI-H226 > 100 µM | NCI-H23 > 100 µM | ACHN > 100 µM | OVCAR-3 77.8 µM | MDA-MB-231 > 100 µM | Malme-3M > 100 µM | SK-MEL-2 > 100 µM | MCF7 > 100 µM | SF-539 > 100 µM | MDA-MB-435 72.9 µM | U-251 > 100 µM | HCC 2998 > 100 µM | OVCAR-8 > 100 µM

CC12CCC(C(=O)N3CC=CCC3)(OC1=O)C2(C)C (stereo not given)
inactive: A498 > 100 µM | CAKI-1 > 100 µM | NCI-H226 > 100 µM | NCI-H23 > 100 µM | OVCAR-4 > 100 µM | HOP-92 > 100 µM | OVCAR-3 > 100 µM | Malme-3M > 100 µM | SK-MEL-2 > 100 µM | MCF7 > 100 µM | SF-539 > 100 µM | SNB-75 > 100 µM | U-251 > 100 µM | HCC 2998 > 69 µM | OVCAR-8 > 100 µM

CC1S(=O)(=O)OCCOS1(=O)=O
inactive: 786-0 46.2 µM | A498 > 100 µM | CAKI-1 53.3 µM | NCI-H226 > 100 µM | NCI-H23 > 76.9 µM | OVCAR-4 > 100 µM | ACHN 46.5 µM | HOP-92 > 100 µM | OVCAR-3 74 µM | Malme-3M > 100 µM | SK-MEL-2 > 100 µM | SF-539 46.6 µM | SNB-75 67.9 µM | U-251 28.8 µM | HCC 2998 > 100 µM | OVCAR-8 > 100 µM

CC(C)OC(=O)c1cc(NC(=O)C(C)(C)C)c(F)cc1Cl
inactive: 786-0 > 100 µM | A498 > 100 µM | CAKI-1 > 100 µM | NCI-H226 > 100 µM | NCI-H23 > 100 µM | OVCAR-4 > 100 µM | ACHN > 100 µM | HOP-92 > 100 µM | OVCAR-3 > 100 µM | Malme-3M > 100 µM | SK-MEL-2 > 100 µM | SF-539 > 100 µM | SNB-75 > 100 µM | U-251 > 100 µM | HCC 2998 > 100 µM | OVCAR-8 > 100 µM

COC(=O)c1ccc(/N=N/N(C)COc2ccc(Br)cc2)cc1
inactive: A498 37.7 µM | CAKI-1 > 57.7 µM | NCI-H226 > 100 µM | NCI-H23 > 68.5 µM | OVCAR-4 54.2 µM | HOP-92 > 53 µM | OVCAR-3 > 100 µM | Malme-3M > 100 µM | SK-MEL-2 > 100 µM | MCF7 > 58.3 µM | SF-539 > 100 µM | SNB-75 57.3 µM | U-251 > 71.3 µM | HCC 2998 31.7 µM | OVCAR-8 > 81.5 µM

COc1ccccc1Nc1nc(NNC(=O)Cc2ccccc2)nc(NNC(=O)c2ccncc2)n1
inactive: 786-0 > 10 µM | CAKI-1 > 10 µM | NCI-H23 > 10 µM | OVCAR-4 > 10 µM | HOP-92 > 10 µM | MDA-MB-231 > 10 µM | Malme-3M > 10 µM | MCF7 > 10 µM | SF-539 > 10 µM | SNB-75 > 10 µM | MDA-N > 10 µM | U-251 > 10 µM | HCC 2998 > 10 µM | OVCAR-8 > 10 µM

O=c1cc2ccccc2nn1Cc1ccccc1Cl
inactive: 786-0 > 100 µM | A498 > 100 µM | CAKI-1 > 100 µM | NCI-H226 > 100 µM | NCI-H23 88.9 µM | OVCAR-4 > 100 µM | ACHN > 100 µM | HOP-92 71.9 µM | OVCAR-3 94.6 µM | Malme-3M > 100 µM | SK-MEL-2 > 100 µM | SF-539 > 100 µM | SNB-75 25.3 µM | U-251 > 100 µM | HCC 2998 > 100 µM | OVCAR-8 > 100 µM

CO/N=C(\C(=O)O/C(=N/C1CCCCC1)NC1CCCCC1)c1csc(NC(c2ccccc2)(c2ccccc2)c2ccccc2)n1
inactive: 786-0 > 10 µM | A498 > 10 µM | CAKI-1 > 10 µM | NCI-H226 > 10 µM | NCI-H23 > 10 µM | OVCAR-4 > 10 µM | ACHN > 10 µM | HOP-92 > 10 µM | OVCAR-3 > 10 µM | Malme-3M > 10 µM | SK-MEL-2 > 10 µM | MCF7 > 10 µM | SF-539 > 10 µM | SNB-75 > 10 µM | MDA-N > 10 µM | U-251 > 10 µM | HCC 2998 > 10 µM | OVCAR-8 > 10 µM

CC#N.O[C@@H]1CCCC[C@@H]1O.O[C@@H]1CCCC[C@@H]1O.[TeH2]
inactive: 786-0 34.1 µM | A498 30.4 µM | CAKI-1 > 100 µM | NCI-H226 40.6 µM | NCI-H23 21.2 µM | OVCAR-4 31.8 µM | ACHN 33.2 µM | HOP-92 26.1 µM | OVCAR-3 31.8 µM | Malme-3M > 100 µM | SK-MEL-2 74.3 µM | SF-539 > 100 µM | SNB-75 > 100 µM | U-251 12.9 µM | HCC 2998 > 100 µM | OVCAR-8 21.8 µM

Nc1nc(O)c2ncn([C@H]3CC[C@@H](CO)O3)c2n1
inactive: A498 > 100 µM | CAKI-1 > 100 µM | NCI-H226 > 100 µM | NCI-H23 > 100 µM | OVCAR-4 > 100 µM | HOP-92 > 100 µM | OVCAR-3 > 100 µM | Malme-3M > 100 µM | SK-MEL-2 > 100 µM | MCF7 > 100 µM | SNB-75 > 100 µM | MDA-N > 100 µM | MDA-MB-435 > 100 µM | U-251 > 100 µM | OVCAR-8 > 100 µM

Cc1cc(S(=O)(=O)Nc2nc(N)nc(N(C)C)n2)c(SCC(=O)O)cc1Cl
inactive: 786-0 > 10 µM | A498 > 10 µM | CAKI-1 > 10 µM | NCI-H226 > 10 µM | NCI-H23 > 10 µM | OVCAR-4 > 10 µM | ACHN > 10 µM | HOP-92 > 10 µM | OVCAR-3 > 10 µM | Malme-3M > 10 µM | SK-MEL-2 > 10 µM | MCF7 > 10 µM | SF-539 > 10 µM | SNB-75 > 10 µM | MDA-N > 10 µM | U-251 > 10 µM | HCC 2998 > 10 µM | OVCAR-8 > 10 µM
